# Source: US20220280661A1, “GLUCOCORTICOID RECEPTOR RADIOLIGANDS AND METHODS FOR THEIR PREPARATION AND USE” (The Regents of the University of California, priority 2019, published 2022)
# Biological target: T1, GR (Mus musculus, UniProt P06537)
# T1 construct: from tissue; host or cells: tissues of C57BL6/J mice (intact or adrenalectomized), in vivo
# T1 sequence (P06537 1-792): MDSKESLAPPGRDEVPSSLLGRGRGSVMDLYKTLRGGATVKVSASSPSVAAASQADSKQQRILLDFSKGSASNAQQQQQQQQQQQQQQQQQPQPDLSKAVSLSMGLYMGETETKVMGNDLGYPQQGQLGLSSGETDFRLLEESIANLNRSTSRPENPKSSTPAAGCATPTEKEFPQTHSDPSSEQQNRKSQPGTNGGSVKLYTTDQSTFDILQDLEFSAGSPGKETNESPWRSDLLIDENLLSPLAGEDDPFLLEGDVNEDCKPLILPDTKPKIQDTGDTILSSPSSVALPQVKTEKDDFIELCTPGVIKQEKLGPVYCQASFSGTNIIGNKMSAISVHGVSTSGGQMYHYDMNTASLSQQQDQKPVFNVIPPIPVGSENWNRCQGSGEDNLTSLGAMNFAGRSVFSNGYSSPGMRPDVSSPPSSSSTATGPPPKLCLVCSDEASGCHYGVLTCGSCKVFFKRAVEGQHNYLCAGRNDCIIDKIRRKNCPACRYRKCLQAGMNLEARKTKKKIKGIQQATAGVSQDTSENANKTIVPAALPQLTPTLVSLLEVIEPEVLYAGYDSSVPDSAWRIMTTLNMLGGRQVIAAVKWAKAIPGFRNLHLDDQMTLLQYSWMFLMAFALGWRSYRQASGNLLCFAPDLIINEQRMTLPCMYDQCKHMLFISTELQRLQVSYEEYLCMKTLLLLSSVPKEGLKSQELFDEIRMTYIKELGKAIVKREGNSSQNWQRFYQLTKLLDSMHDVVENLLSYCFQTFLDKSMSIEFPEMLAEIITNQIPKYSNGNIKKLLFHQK
# Assay: 11C radiotracer biodistribution with dexamethasone or Dex-CD blocking
# Format: in vivo
# Conditions: 20 min after injection
# Protocol: Animal Studies. All animal experiments were performed under the approval of the Institutional Animal Care and Use Committee (IACUC) at UCSF. C57BL6/J mice (4-6 weeks) were purchased from Charles River. All the mice were housed in a dedicated vivarium with free access to food and water. […] Adrenalectomized mice were purchased from Charles River and provided drinking water supplemented with NaCl (aq) per instructions until the time of the tracer biodistribution study.
# Biodistribution Studies. Mice were euthanized after radiotracer (7.4-18.5 MBq in 100-150 μL) injection with CO2 (g) asphyxiation and dissected at dedicated time points post injection. The blood and tissues were collected, washed, dried, and weighed. The activity of each tissue was measured with a gamma counter. All data was decay corrected. PRISM software was used to express a percentage (% ID/g) of the injected dose per gram of tissue.
# The P value indicates the result of an unpaired, two-tailed Student's t test between the respective treatment group and vehicle (n=5/group).
# Table 10 summarizes biodistribution data collected 20 minutes after injection of ^11C-YJH02 among two treatment arms receiving vehicle or one intraperitoneal injection of the water-soluble dexamethasone-cyclodextrin complex at 10 mg/kg one hour prior to radiotracer administration. The P value indicates the result of an unpaired, two-tailed Student's t test between the respective treatment group and vehicle (n=5/group).
# [1] = mice given Dex-CD 10 mg/kg intraperitoneal one hour prior to radiotracer
# [2] = mice given dexamethasone 50 mg/kg via gavage once daily for three days
compound,measurement,setting,value
CC1=CC(C)(C)Nc2ccc3c(c21)C(Cc1ccc(F)cc1)Oc1cccc(O[11CH3])c1-3 (racemic) [(±)-^11C-YJH08],"radiotracer uptake, Adrenal",[1],5.67 ± 2.6 % ID/g
same,"radiotracer uptake, Blood",[1],3.72 ± 0.2 % ID/g
same,"radiotracer uptake, Bone",[1],1.95 ± 1.6 % ID/g
same,"radiotracer uptake, Brain",[1],1.40 ± 0.2 % ID/g
same,"radiotracer uptake, Brown Fat",[1],8.68 ± 2.4 % ID/g
same,"radiotracer uptake, Heart",[1],5.95 ± 0.7 % ID/g
same,"radiotracer uptake, Kidney",[1],4.11 ± 0.4 % ID/g
same,"radiotracer uptake, Lg. Int.",[1],1.38 ± 0.3 % ID/g
same,"radiotracer uptake, Liver",[1],12.47 ± 0.8 % ID/g
same,"radiotracer uptake, Lung",[1],5.09 ± 0.7 % ID/g
same,"radiotracer uptake, Muscle",[1],1.16 ± 0.2 % ID/g
same,"radiotracer uptake, Pancreas",[1],3.14 ± 0.3 % ID/g
same,"radiotracer uptake, Sm. Int.",[1],15.72 ± 3.2 % ID/g
same,"radiotracer uptake, Spleen",[1],5.72 ± 0.7 % ID/g
same,"radiotracer uptake, Stomach",[1],1.79 ± 0.8 % ID/g
same,"radiotracer uptake, Adrenal",[2],9.24 ± 3.6 % ID/g
same,"radiotracer uptake, Blood",[2],4.58 ± 1.9 % ID/g
same,"radiotracer uptake, Bone",[2],1.06 ± 0.4 % ID/g
same,"radiotracer uptake, Brain",[2],1.02 ± 0.3 % ID/g
same,"radiotracer uptake, Brown Fat",[2],4.58 ± 2.3 % ID/g
same,"radiotracer uptake, Heart",[2],3.86 ± 1.6 % ID/g
same,"radiotracer uptake, Kidney",[2],2.96 ± 0.9 % ID/g
same,"radiotracer uptake, Lg. Int.",[2],1.01 ± 0.5 % ID/g
same,"radiotracer uptake, Liver",[2],5.22 ± 2.7 % ID/g
same,"radiotracer uptake, Lung",[2],3.39 ± 1.6 % ID/g
same,"radiotracer uptake, Muscle",[2],0.84 ± 0.4 % ID/g
same,"radiotracer uptake, Pancreas",[2],1.52 ± 0.7 % ID/g
same,"radiotracer uptake, Sm. Int.",[2],30.24 ± 12.7 % ID/g
same,"radiotracer uptake, Spleen",[2],3.71 ± 1.5 % ID/g
same,"radiotracer uptake, Stomach",[2],0.71 ± 0.2 % ID/g
same,"radiotracer uptake, Adrenal",mice given vehicle,17.63 ± 2.9 % ID/g
same,"radiotracer uptake, Blood",mice given vehicle,4.82 ± 0.4 % ID/g
same,"radiotracer uptake, Bone",mice given vehicle,1.46 ± 0.5 % ID/g
same,"radiotracer uptake, Brain",mice given vehicle,1.98 ± 0.1 % ID/g
same,"radiotracer uptake, Brown Fat",mice given vehicle,9.52 ± 0.9 % ID/g
same,"radiotracer uptake, Heart",mice given vehicle,7.06 ± 0.8 % ID/g
same,"radiotracer uptake, Kidney",mice given vehicle,7.22 ± 0.8 % ID/g
same,"radiotracer uptake, Lg. Int.",mice given vehicle,1.70 ± 0.3 % ID/g
same,"radiotracer uptake, Liver",mice given vehicle,16.25 ± 0.8 % ID/g
same,"radiotracer uptake, Lung",mice given vehicle,6.80 ± 0.7 % ID/g
same,"radiotracer uptake, Muscle",mice given vehicle,1.85 ± 0.1 % ID/g
same,"radiotracer uptake, Pancreas",mice given vehicle,4.64 ± 0.1 % ID/g
same,"radiotracer uptake, Sm. Int.",mice given vehicle,28.72 ± 14.5 % ID/g
same,"radiotracer uptake, Spleen",mice given vehicle,7.28 ± 1.8 % ID/g
same,"radiotracer uptake, Stomach",mice given vehicle,2.62 ± 1.5 % ID/g
